The record followed here is patent US7307063B2, “Melanocortin metallopeptides for treatment of sexual dysfunction” (Palatin Technologies, Inc., priority 2001, dated 2007).

Where “and” joins values, the source holds several entries; their conditions need not be identical. Equal values may be shown once. Non-standard residues stand in square brackets, D forms with d. No end group written: not given here. *: point of attachment. Tiq = 1,2,3,4-tetrahydroisoquinoline-1-carboxylic acid; 1Nal = N[C@@H](Cc1cccc2ccccc12)C(=O)O; Desaminotyrosyl = O=C(CCc1ccc(O)cc1)*; dIgl = N[C@@H](C(=O)O)C1Cc2ccccc2C1; Igl = N[C@H](C(=O)O)C1Cc2ccccc2C1; Nle = CCCC[C@H](N)C(=O)O

In experiment [1] the target is T1, hMC5-R (Homo sapiens, UniProt P33032).
T1 construct: expressed in transfected cells; host or cells: HEK-293
Description: Competitive binding assay: inhibition of 125I-NDP-α-MSH binding to HEK-293 membranes with cloned human receptor subtype 5. Conditions: Table 6; 1 μM; mean of triplicate. The procedure:
(§1) Rhenium-complexed metallopeptides of the formulas given in Table 1 were prepared, with the metallopeptides complexed with rhenium using the rhenium transfer agent ReOCl3(PPh3)2 in the presence of 1,8-Diazabicyclo[5,4,0] undec-7-ene as a base, as disclosed in International Application PCT/US00/16396, filed Jun. 14, 2000, Melanocortin Metallopeptide Constructs, Combinatorial Libraries and Applications, incorporated by reference herein. Affinities of compounds were measured using membranes from HEK-293 cells containing cloned human melanocortin receptor subtypes 3, 4 and 5. MC1-R membranes were isolated from B16—F10 mouse melanoma cells. The assay tube also contained a chosen concentration of the test peptide of this invention, complexed to a rhenium metal ion as indicated, for determining its efficacy in inhibiting the binding of ^125I-NDP-α-MSH to its receptor. Non-specific binding was measured by complete inhibition of binding of ^125I-NDP-α-MSH in the assay with the presence of 1 μM α-MSH. 100% specific binding was defined as the difference in radioactivity (cpm) bound to cell membranes in the absence and presence of 1 μM α-MSH. The cpm obtained in presence of test compounds were normalized with respect to 100% specific binding to determine the percent inhibition of ^125I-NDP-α-MSH binding.
(§2) Peptide sequences set forth in Table 6 were prepared using conventional synthetic means. The resulting sequences were rhenium-complexed to form metallopeptides, with the metallopeptides complexed with rhenium using the rhenium transfer agent ReOCl3(PPh3)2 in the presence of 1,8-Diazabicyclo[5,4,0] undec-7-ene as a base. Percent inhibition was determined as in Example 1 using the Re-complexed metallopeptides, using the same methods as described therein. All measures are means of triplicate determinations.

The target in experiment [2] is T2, hMC2-R (Homo sapiens, UniProt P41968).
T2 construct: expressed in transfected cells; host or cells: HEK-293
Kind of experiment: Competitive binding assay of additional compounds, Table 6 hMC2-R. Conditions: 1 μM, mean of triplicate. The procedure: [The source words this procedure for another target and reports this target under the same test.] as §1, §2

In experiment [3] the target is T3, MC1-R (Mus musculus, UniProt Q01727).
T3 construct: MC1-R membranes were isolated from B16—F10 mouse melanoma cells; endogenous in cells; host or cells: B16-F10 mouse melanoma cells
Kind of experiment: Competitive binding assay: inhibition of 125I-NDP-α-MSH binding to membranes from B16-F10 mouse melanoma cells. Conditions: Table 6; 1 μM; mean of triplicate. The method, boiled down:
(§3)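 Membranes were incubated with 125I-NDP-α-MSH and a chosen concentration of Re-complexed peptide. Bound radioactivity was then measured, with 1 μM α-MSH defining complete inhibition. Finally, cpm were normalized against specific binding to yield percent inhibition.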

Experiment [4] addresses T4, MC4-R (Homo sapiens, UniProt P32245).
T4 construct: expressed in transfected cells; host or cells: HEK-293
Kind of experiment: Competitive binding assay: inhibition of 125I-NDP-α-MSH binding to HEK-293 membranes with cloned human receptor subtype 4. Conditions: Table 6; 1 μM; mean of triplicate. An outline of the steps: as §3

T2 sequence (P41968 whole entry): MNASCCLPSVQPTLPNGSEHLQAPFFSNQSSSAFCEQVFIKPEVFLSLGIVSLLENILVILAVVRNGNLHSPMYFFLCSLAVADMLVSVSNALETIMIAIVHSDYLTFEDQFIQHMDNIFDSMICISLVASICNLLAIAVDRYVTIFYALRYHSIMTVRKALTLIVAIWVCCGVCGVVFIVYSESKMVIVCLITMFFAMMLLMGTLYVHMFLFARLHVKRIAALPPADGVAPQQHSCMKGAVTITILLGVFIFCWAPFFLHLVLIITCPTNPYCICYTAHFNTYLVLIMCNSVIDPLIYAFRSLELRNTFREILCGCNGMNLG
T4 sequence (P32245 whole entry): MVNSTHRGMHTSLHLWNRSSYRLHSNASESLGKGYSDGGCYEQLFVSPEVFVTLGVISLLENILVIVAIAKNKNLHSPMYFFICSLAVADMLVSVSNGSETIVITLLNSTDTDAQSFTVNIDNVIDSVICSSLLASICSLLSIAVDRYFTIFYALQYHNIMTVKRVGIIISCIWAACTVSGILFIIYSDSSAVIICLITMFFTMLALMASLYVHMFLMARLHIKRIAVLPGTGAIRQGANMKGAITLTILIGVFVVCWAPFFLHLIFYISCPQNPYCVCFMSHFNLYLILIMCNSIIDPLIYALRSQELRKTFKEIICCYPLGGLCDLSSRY
T1 sequence (P33032 whole entry): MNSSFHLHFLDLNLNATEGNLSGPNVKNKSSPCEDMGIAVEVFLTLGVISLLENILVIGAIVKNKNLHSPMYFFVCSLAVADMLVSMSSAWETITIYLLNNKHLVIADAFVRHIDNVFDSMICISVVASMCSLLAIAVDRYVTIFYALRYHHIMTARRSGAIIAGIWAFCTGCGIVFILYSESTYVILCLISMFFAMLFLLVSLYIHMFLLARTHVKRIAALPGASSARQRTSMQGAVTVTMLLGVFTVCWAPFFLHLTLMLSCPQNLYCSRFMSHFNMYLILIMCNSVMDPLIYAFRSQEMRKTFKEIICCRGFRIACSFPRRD
T3 sequence (Q01727 whole entry): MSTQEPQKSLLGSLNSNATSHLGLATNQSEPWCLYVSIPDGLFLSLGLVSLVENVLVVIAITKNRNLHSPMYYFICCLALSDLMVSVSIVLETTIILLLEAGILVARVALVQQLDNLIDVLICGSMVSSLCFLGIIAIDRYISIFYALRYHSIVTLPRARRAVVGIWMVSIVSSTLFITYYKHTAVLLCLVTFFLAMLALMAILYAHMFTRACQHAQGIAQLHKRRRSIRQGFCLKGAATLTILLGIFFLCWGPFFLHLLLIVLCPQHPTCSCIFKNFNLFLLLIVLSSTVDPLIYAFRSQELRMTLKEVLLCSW

As for “Ac-Ala-Ala-His-D-Phe-Arg-Cys-Trp-NH2 ({Ac-Ala-Ala-H2N}-[dF]RCW-NH2; not fully specified; printed as Ac-Ala-Ala-His-D-Phe-Arg-Cys-Trp-NH2)”, in experiment [1], the “% Inhibition of Binding hMC5-R” value turned out to be 17%. Further, in experiment [2], the “% Inhibition of Binding hMC2-R” value was determined as 0%. In addition, in experiment [3], the “% Inhibition of Binding MC1-R” value is given as 76%. Besides, the “% Inhibition of Binding hMC4-R” value in experiment [4] is 4%.
As for “Ac-Nle-Ala-His-D-Phe-Arg-His-Cys-NH2 ({Ac-Nle-Ala-H2N}-[dF]RHC-NH2; not fully specified; printed as Ac-Nle-Ala-His-D-Phe-Arg-His-Cys-NH2)”, the “% Inhibition of Binding hMC5-R” value in experiment [1] amounted to 0%. Moreover, the “% Inhibition of Binding hMC2-R” value in experiment [2] is listed as 0%. Besides, the “% Inhibition of Binding MC1-R” value in experiment [3] is recorded as 58%. Also, in experiment [4], the “% Inhibition of Binding hMC4-R” value was 1%.
As for “Tiq-D-Phe-Arg-Trp-Cys-NH2 (Tiq-[dF]RWC-NH2; also: metal complex)”, the “% Inhibition of Binding hMC5-R” value in experiment [1] was found to be 55%. Further, the “% Inhibition of Binding hMC2-R” value in experiment [2] is listed as 7%. In experiment [3], the “% Inhibition of Binding MC1-R” value was determined as 7%. The “% Inhibition of Binding hMC4-R” value in experiment [4] was found to be 8%.
On to D-Nal 2′-D-Phe-Arg-Cys-Trp-NH2, for which the “% Inhibition of Binding hMC5-R” value in experiment [1] amounted to 52%. Also, the “% Inhibition of Binding hMC2-R” value in experiment [2] came out at 7%. Moreover, the “% Inhibition of Binding MC1-R” value in experiment [3] came out at 50%. In addition, the “% Inhibition of Binding hMC4-R” value in experiment [4] was determined as 0%.
Take D-Igl-D-Nal 2′-Arg-Cys-NH2: in experiment [1], the “% Inhibition of Binding hMC5-R” value turned out to be 41%. In addition, the “% Inhibition of Binding hMC2-R” value in experiment [2] is 1%. Also, in experiment [3], the “% Inhibition of Binding MC1-R” value was 0%. In addition, the “% Inhibition of Binding hMC4-R” value in experiment [4] was 8%.
For [dIgl][dF]RWC-NH2, in that order: 63%, 0%, 2% and 8%.
For “Hept-Ser(Bzl)-D-Phe(4′-Cl)-Arg-D-Trp-Cys-NH2”, in that order: 79%, 37%, 24% and 62%.
Regarding “3′-Bromo phenyl acetyl-Lys-Ala-D-Phe(3′-Cl)-Cys-Trp-NH2”, in experiment [1], the “% Inhibition of Binding hMC5-R” value was 60%. The “% Inhibition of Binding hMC2-R” value in experiment [2] is recorded as 13%. In experiment [3], the “% Inhibition of Binding MC1-R” value is given as 4%. In addition, the “% Inhibition of Binding hMC4-R” value in experiment [4] amounted to 38%.
The like results for “3′-Bromo phenyl acetyl-Arg-Thr(Bzl)-D-Phe(4′-Cl)-Cys-NH2” were, in that order, 21%, 5%, 16% and 6%.
For Tic-D-Phe(4′-Cl)-Lys-Cys-NH2, in that order: 84%, 0%, 16% and 6%.
The like results for Ac-[Nle]AL[dF]RCW-NH2 were, in that order, 87%, 4%, 81% and 18%.
In the case of “3′-Bromo phenyl acetyl-Arg-Trp-D-Phe(4′-Cl)-Cys-NH2”, the “% Inhibition of Binding hMC5-R” value in experiment [1] worked out at 21%. In addition, the “% Inhibition of Binding hMC2-R” value in experiment [2] is recorded as 0%. Also, the “% Inhibition of Binding MC1-R” value in experiment [3] turned out to be 5%. Moreover, the “% Inhibition of Binding hMC4-R” value in experiment [4] worked out at 17%.
For Tic-D-Phe(4′-Cl)-Arg-Cys-NH2, in that order: 42%, 0%, 0% and 3%.
The like results for “Nal 1′-D-Phe-Arg-Cys-Trp-NH2 ([1Nal][dF]RCW-NH2; also: metal complex)” were, in that order, 45%, 6%, 0% and 12%.
For “3′-Bromo phenyl acetyl-Arg-Ala-D-Phe(4′-Cl)-Cys-NH2”, in that order: 15%, 47%, 90% and 59%.
Ac-[Nle]AT[dF]RCW-NH2: the “% Inhibition of Binding hMC5-R” value in experiment [1] came out at 7%. The “% Inhibition of Binding hMC2-R” value in experiment [2] was determined as 8%. Besides, the “% Inhibition of Binding MC1-R” value in experiment [3] turned out to be 30%. Besides, the “% Inhibition of Binding hMC4-R” value in experiment [4] amounted to 11%.
The like results for “3′-Bromo phenyl acetyl-Lys-Ala-D-Phe(4′-Me)-Cys-Trp-NH2” were, in that order, 80%, 19%, 0% and 73%.
The like results for “Pro-D-Phe-Arg-Trp-Cys-NH2 (P[dF]RWC-NH2; also: metal complex)” were, in that order, 0%, 0%, 39% and 14%.
Consider “NH2(CH2)6CO-Ser(Bzl)-D-Nal 2′-Arg-Trp-Cys-NH2”, for which, in experiment [1], the “% Inhibition of Binding hMC5-R” value is 95%. In addition, the “% Inhibition of Binding hMC2-R” value in experiment [2] is 69%. In addition, the “% Inhibition of Binding MC1-R” value in experiment [3] stood at 14%. Further, in experiment [4], the “% Inhibition of Binding hMC4-R” value was 96%.
For “Ac-Ala-His-D-Phe-Arg-Cys-Trp-NH2 ({Ac-Ala-H2N}-[dF]RCW-NH2; not fully specified; printed as Ac-Ala-His-D-Phe-Arg-Cys-Trp-NH2)”, in that order: 9%, 0%, 61% and 0%.
Consider “3′-(4′-Hydroxyphenyl)propionyl-D-Phe-Arg-Cys-Trp-NH2 (Desaminotyrosyl-[dF]RCW-NH2; not fully specified; printed as 3′-(4′-Hydroxyphenyl)propionyl-D-Phe-Arg-Cys-Trp-NH2)”, for which the “% Inhibition of Binding hMC5-R” value in experiment [1] is 14%. Besides, the “% Inhibition of Binding hMC2-R” value in experiment [2] stood at 0%. The “% Inhibition of Binding MC1-R” value in experiment [3] came out at 7%. In experiment [4], the “% Inhibition of Binding hMC4-R” value was determined as 0%.
For Tic-D-Phe(2′-Cl)-Arg-Trp-Cys-NH2, the “% Inhibition of Binding hMC5-R” value in experiment [1] came to 59%. In experiment [2], the “% Inhibition of Binding hMC2-R” value is 26%. Besides, the “% Inhibition of Binding MC1-R” value in experiment [3] is reported as 15%. The “% Inhibition of Binding hMC4-R” value in experiment [4] stood at 69%.
For “3′-Bromo phenyl acetyl-Arg-His-D-Phe(4′-Cl)-Cys-NH2”, in that order: 0%, 11%, 47% and 15%.
On to “3′-Br-Phenylacetyl-His-D-Phe(4′-Cl)-Trp-Cys-NH2”, for which, in experiment [1], the “% Inhibition of Binding hMC5-R” value is reported as 40%. For the same substance, the “% Inhibition of Binding hMC2-R” value in experiment [2] is on record as 15%. In addition, the “% Inhibition of Binding MC1-R” value in experiment [3] stood at 41%. Moreover, the “% Inhibition of Binding hMC4-R” value in experiment [4] turned out to be 3%.
As to D-Nal 2′-D-Phe-Arg-Trp-Cys-NH2, the “% Inhibition of Binding hMC5-R” value in experiment [1] is 13%. Besides, the “% Inhibition of Binding hMC2-R” value in experiment [2] was 0%. The “% Inhibition of Binding MC1-R” value in experiment [3] is 11%. For the same substance, the “% Inhibition of Binding hMC4-R” value in experiment [4] turned out to be 5%.
The like results for “Ac-Ala-Ala-Ala-D-Phe-Arg-Cys-Trp-NH2 (Ac-AAA[dF]RCW-NH2; not fully specified; printed as Ac-Ala-Ala-Ala-D-Phe-Arg-Cys-Trp-NH2)” were, in that order, 0%, 0%, 5% and 3%.
The like results for D-Nal 1′-D-Phe-Arg-Cys-Trp-NH2 were, in that order, 48%, 0%, 22% and 8%.
The like results for “Ac-Nle-Ala-His-D-Phe-Arg-D-Nal 2′-Cys-NH2” were, in that order, 54%, 0%, 100% and 90%.
With [Igl][dF]RCW-NH2, in experiment [1], the “% Inhibition of Binding hMC5-R” value is 67% and 64%. Further, the “% Inhibition of Binding hMC2-R” value in experiment [2] was 7% and 0%. The “% Inhibition of Binding MC1-R” value in experiment [3] was 38% and 36%. In experiment [4], the “% Inhibition of Binding hMC4-R” value was 14% and 20%.
